Measurements reported in patent US7217423B2, “Revitalising active complex for the skin” (Coty B.V., priority 2001, dated 2007).

Key:
[1] = system: cell homogenate of epithelial cells; test: oxygraphy: stimulation of oxygen consumption; assay type: cell-based; conditions: control = 100%
Excerpt: Another synergy could be observed with regard to oxygraphy, i.e. the stimulation of the oxygen consumption of a cell homogenate of epithelial cells.

[2] = system: dermal fibroblasts obtained from explanted normal human skin; test: in-vitro anti-stress test under UV activity (LDH); assay type: cell-based; conditions: control group = 100%, mean of 5 tests
Experimental: In this test, a culture of dermal fibroblasts obtained from explanted normal human skin is subjected to UV-induced stress. The amounts of the enzyme lacticodes-hydrogenase (LDH) produced as a consequence of the aforesaid stress are proportional to the cell damage caused. The culture medium contained, for example, 3 wt. % of glycogen (Dermo-saccharides GY®), and a series of control tests without the aforesaid additive was carried out for comparative purposes.

Row | Compound | oxygen consumption ([1]; 2 wt. % creatine added to control liquid (buffer)) [%] | protection of cells after UV radiation ([2]; 2 wt. % creatine in culture liquid) [%] | oxygen consumption ([1]; 3 wt. % glycogen added to control liquid (buffer)) [%] | protection of cells still alive after UV radiation ([2]; 3 wt. % glycogen in culture medium, 4 days after UV radiation) [%]
1 | CN(CC(=O)O)C(=N)N [creatine, N-carbamidoyl-N-methylglycine] | 119 | 110 | – | –
2 | glycogen | – | – | 135 | 128
